According to PMC2737144, “Characterization of an Enantioselective Odorant Receptor in the Yellow Fever Mosquito Aedes aegypti” (PLoS ONE, 2009):

Test system: Apis mellifera OR11 (AmOR11)
Experiment: not given
Settings: Xenopus oocytes; cited from earlier work

| Structure (SMILES) | concentration range of AmOR11 response |
| --- | --- |
| CC(=O)CCCCCC=CC(=O)O [9-oxo-2-decenoic acid] | nanomolar range |

Target: T1, AaOR8/AaOR7 protein complex (Aedes aegypti, UniProt Q16MN0)
T1 sequence (Q16MN0 32-422): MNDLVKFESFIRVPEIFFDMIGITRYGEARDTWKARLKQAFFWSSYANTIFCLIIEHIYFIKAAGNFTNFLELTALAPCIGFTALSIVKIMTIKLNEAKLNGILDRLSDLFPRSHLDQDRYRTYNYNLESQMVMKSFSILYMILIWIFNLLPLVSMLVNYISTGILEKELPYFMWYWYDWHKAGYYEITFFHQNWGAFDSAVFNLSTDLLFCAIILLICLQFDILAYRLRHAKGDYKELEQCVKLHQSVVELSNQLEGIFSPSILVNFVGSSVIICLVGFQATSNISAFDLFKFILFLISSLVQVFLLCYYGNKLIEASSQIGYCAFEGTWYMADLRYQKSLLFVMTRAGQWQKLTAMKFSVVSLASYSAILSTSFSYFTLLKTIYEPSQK
T1 sequence (Q178U6 1-478 partner): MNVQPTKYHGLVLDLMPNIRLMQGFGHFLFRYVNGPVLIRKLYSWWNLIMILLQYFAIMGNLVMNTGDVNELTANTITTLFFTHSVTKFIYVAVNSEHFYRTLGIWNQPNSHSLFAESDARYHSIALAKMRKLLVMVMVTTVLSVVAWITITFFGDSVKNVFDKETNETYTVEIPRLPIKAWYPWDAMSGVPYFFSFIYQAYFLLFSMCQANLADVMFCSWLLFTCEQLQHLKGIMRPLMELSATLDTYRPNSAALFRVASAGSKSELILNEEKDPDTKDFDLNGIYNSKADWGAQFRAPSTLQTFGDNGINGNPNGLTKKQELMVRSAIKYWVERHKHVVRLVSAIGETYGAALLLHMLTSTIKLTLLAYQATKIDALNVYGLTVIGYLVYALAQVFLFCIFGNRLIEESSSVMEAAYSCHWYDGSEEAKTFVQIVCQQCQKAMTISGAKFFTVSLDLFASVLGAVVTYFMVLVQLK
Experiment: Two-microelectrode voltage clamp of Xenopus oocytes co-expressing AaOr8 and AaOr7; odorant-induced whole-cell currents
Format: cell-based
Settings: Xenopus oocytes co-expressing AaOR8 and AaOR7, holding potential −80 mV, 8 sec odorant exposure, non-linear regression curve fit; read-out: EC50 (half maximal effective concentration) of AaOR8
Description: Along with AaOr8, we co-expressed AaOr7 in Xenopus oocytes and electrophysiological responses (Fig. 1B) to each enantiomer were measured using the two-microelectrode voltage clamp technique. […] We established the concentration-response relationships for each compound (Fig. 1C) and their associated half maximal effective concentration (EC50) as a sensitivity criterion. […] Part of the response to the (S)-(+)-enantiomer may have been caused by the presence of trace amounts (1 part per thousand) of the (R)-(—)-enantiomer (see Material & Methods).
AaOr7 and AaOr8 cRNAs were synthesized from linearized pSP64DV expression vectors (Dr. Zwiebel, Vanderbilt University) using the mMESSAGE mMACHINE SP6 kit (Ambion). Following mechanical disruption of the Xenopus ovaries, stage […] oocytes were treated for 30 min at room temperature under 150 rpm shaking with a 2 mg/mL collagenase (SIGMA, C6895) solution in OR-2 buffer (5 mM HEPES, 1 mM Na2HPO4, 82.5 mM NaCl, and 2.5 mM MgCl2 [pH 7.6]). All procedures were performed in accordance with the NIH Institutional Animal Care and Use Committee and NIH guidelines. Oocytes were subsequently washed 5 times with OR-2 buffer, 5 times with MBSH buffer (10 mM HEPES, 2.4 mM NaHCO3, […], 1 mM KCl, 0.82 mM MgSO4, 0.41 mM CaCl2 and 0.33 mM (CaNO3)2, [pH 7.6]), 5 times with MBSH supplemented with 50 µg/ML gentamycin and 5 times with Ringer's buffer (96 mM NaCl, 2 mM KCl, 5 mM MgCl2, 6H2O, 5 mM HEPES and 0.8 mM CaCl2 [pH 7.6]) supplemented with 5% heat-inactivated horse serum, 50 µg/mL tetracycline, 100 µg/mL streptomycin and 550 µg/mL sodium pyruvate. Individual oocytes were allowed to recover overnight prior to injection with 10 ng of each cRNA and were recorded 4 to 6 days post-injection.
Whole-cell currents were recorded using the two-microelectrode voltage clamp technique, [58]. Odorants were dissolved in dimethyl sulfoxide (DMSO) at a 1∶10 ratio so that stock solutions could be made. Prior to recording, stock solutions were diluted in Ringer's solution [pH 7.6] (96 mM NaCl, 2 mM KCl, 5 mM MgCl2, 5 mM HEPES and 0.8 mM CaCl2) to the indicated concentrations before being applied to Xenopus oocytes in a RC-3Z oocyte recording chamber (Warner Instruments). Oocytes were continuously perfused by either pure Ringer's solution or exposed for 8 sec to serial dilutions of odorants dissolved in Ringer's solution. Odorant-induced currents were recorded with an OC-725C oocyte clamp (Warner Instruments) at a holding potential of −80 mV. Between stimulations, oocytes were allowed to return to their membrane resting potential by washing out the odorants using pure Ringer's solution. Data acquisition and analysis were carried out with Digidata 1440A and pCLAMP10 software (Axon Instruments).
Statistical analyses (GraphPad Prism5 Software, Inc.) of the logEC50 means were performed using an ordinary one-way ANOVA in conjunction with the Tukey Kramer multiple comparison post test (95% confidence interval). […] In all figures, graphical results are shown as means and standard error of the mean for a minimum of six independent oocytes. EC50 values for individual compounds were extrapolated using the non-linear regression curve fit function provided in Prism5.

| Structure (SMILES) | EC50 [µM] |
| --- | --- |
| C=CC(O)CCCC (stereo not drawn) [1-Hepten-3-ol] | 17 |
| C=CC(O)CCCCCC (stereo not drawn) [1-Nonen-3-ol] | 5.14 |
| C=CC(=O)CCCCC [1-Octen-3-one] | 23 |
| C=CCC(O)CCCC (stereo not drawn) [1-Octen-4-ol] | 39.1 |
| CCCCCC(O)CC (stereo not drawn) [3-Octanol] | 5.82 |
| C=C[C@H](O)CCCCC [(R)-(—)-1-octen-3-ol] | 0.158 |
| C=C[C@@H](O)CCCCC [(S)-(+)-1-octen-3-ol] | 17.2 |

Test system: Bombyx mori OR1 (BmOR1)
Experiment: not given
Settings: oocyte expression system; cited from earlier work

| Structure (SMILES) | concentration range of BmOR1 response |
| --- | --- |
| CCC/C=C\C=C\CCCCCCCCCO [bombykol] | micromolar range |
